Laboratory results taken from ChEMBL document CHEMBL1671859, “bla(IMP-4) in different genetic contexts in Enterobacteriaceae isolates from Australia” (2008).
≈ marks a conversion by molar mass, not a printed value.

Experiments:
Format in all cases: functional
Klebsiella pneumoniae [1] = assay: Antibacterial activity against Klebsiella pneumoniae Kp1239 transconjugant harboring IncL/M plasmid and blaIMP-4-qacG2-aacA4-catB3 array by Etest method
Klebsiella pneumoniae [2] = assay: Antibacterial activity against Klebsiella pneumoniae Kp2730 transconjugant harboring IncL/M plasmid and blaIMP-4-qacG2-aacA4-catB3 and dfrA12-orfF-aadA2 arrays by Etest method
Citrobacter amalonaticus [3] = assay: Antibacterial activity against Citrobacter amalonaticus Ca3927 transconjugant harboring IncL/M plasmid and blaIMP-4-qacG2-aacA4-catB3 array by Etest method
Enterobacter cloacae [4] = assay: Antibacterial activity against Enterobacter cloacae El1573 transconjugant harboring IncL/M plasmid and blaIMP-4-qacG2-aacA4-catB3 array by Etest method
Citrobacter amalonaticus [5] = assay: Antibacterial activity against Citrobacter amalonaticus Ca38009 transconjugant harboring IncL/M plasmid and blaIMP-4-qacG2-aacA4-catB3 array by Etest method
Klebsiella pneumoniae [6] = assay: Antibacterial activity against Klebsiella pneumoniae Kp38045 transconjugant harboring IncL/M plasmid and blaIMP-4-qacG2-aacA4-catB3 array by Etest method
Escherichia coli [7] = assay: Antibacterial activity against Escherichia coli Ec9381 transconjugant harboring IncL/M plasmid and blaIMP-4-qacG2-aacA4-catB3 array by Etest method
Morganella morganii [8] = assay: Antibacterial activity against Morganella morganii Mm1229 transconjugant harboring IncL/M plasmid and blaIMP-4-qacG2-aacA4-catB3 array by Etest method
Enterobacter cloacae [9] = assay: Antibacterial activity against Enterobacter cloacae El3799 transconjugant harboring IncL/M plasmid and blaIMP-4-qacG2-aacA4-catB3 array by Etest method
Klebsiella oxytoca [10] = assay: Antibacterial activity against Klebsiella oxytoca Ko0426 transconjugant harboring IncL/M plasmid and blaIMP-4-qacG2-aacA4-catB3 array by Etest method
Klebsiella oxytoca [11] = assay: Antibacterial activity against Klebsiella oxytoca Ko1156 transconjugant harboring IncL/M plasmid and blaIMP-4-qacG2-aacA4-catB3 array by Etest method
Escherichia coli [12] = assay: Antibacterial activity against Escherichia coli Ec158 transconjugant harboring IncA/C plasmid and blaIMP-4-qacG2-aacA4-catB3 array by Etest method
Citrobacter koseri = assay: Antibacterial activity against Citrobacter koseri Ck211 transconjugant harboring IncA/C plasmid and blaIMP-4-qacG2-aacA4-catB3 array by Etest method
Escherichia coli [13] = assay: Antibacterial activity against Escherichia coli Ec221 transconjugant harboring IncA/C plasmid and blaIMP-4-qacG2-aacA4-catB3 array by Etest method
Citrobacter youngae = assay: Antibacterial activity against Citrobacter youngae CyB38 transconjugant harboring blaIMP-4-qacG2-aacA4-catB3 array by Etest method
Klebsiella pneumoniae [14] = assay: Antibacterial activity against Klebsiella pneumoniae isolate Kp1239 harboring IncL/M plasmid and blaIMP-4-qacG2-aacA4-catB3 array by Etest method
Klebsiella pneumoniae [15] = assay: Antibacterial activity against Klebsiella pneumoniae isolate Kp2730 harboring IncL/M plasmid and blaIMP-4-qacG2-aacA4-catB3 and dfrA12-orfF-aadA2 arrays by Etest method
Enterobacter cloacae [16] = assay: Antibacterial activity against Enterobacter cloacae isolate El3280 harboring IncL/M plasmid and blaIMP-4-qacG2-aacA4-catB3 array by Etest method
Citrobacter amalonaticus [17] = assay: Antibacterial activity against Citrobacter amalonaticus isolate Ca3927 harboring IncL/M plasmid and blaIMP-4-qacG2-aacA4-catB3 array by Etest method
Enterobacter cloacae [18] = assay: Antibacterial activity against Enterobacter cloacae isolate El1573 harboring IncL/M plasmid and blaIMP-4-qacG2-aacA4-catB3 array by Etest method
Serratia marcescens [19] = assay: Antibacterial activity against Serratia marcescens isolate Sm2723 harboring IncL/M plasmid and blaIMP-4-qacG2-aacA4-catB3 array by Etest method
Klebsiella pneumoniae [20] = assay: Antibacterial activity against Klebsiella pneumoniae isolate Kp7564 harboring IncL/M plasmid and blaIMP-4-qacG2-aacA4-catB3 array by Etest method
Citrobacter amalonaticus [21] = assay: Antibacterial activity against Citrobacter amalonaticus isolate Ca38009 harboring IncL/M plasmid and blaIMP-4-qacG2-aacA4-catB3 array by Etest method
Klebsiella pneumoniae [22] = assay: Antibacterial activity against Klebsiella pneumoniae isolate Kp38009 harboring IncL/M plasmid and blaIMP-4-qacG2-aacA4-catB3 array by Etest method
Morganella morganii [23] = assay: Antibacterial activity against Morganella morganii isolate Mm1229 harboring IncL/M plasmid and blaIMP-4-qacG2-aacA4-catB3 array by Etest method
Enterobacter cloacae [24] = assay: Antibacterial activity against Enterobacter cloacae isolate El3799 harboring IncL/M plasmid and blaIMP-4-qacG2-aacA4-catB3 array by Etest method
Klebsiella oxytoca [25] = assay: Antibacterial activity against Klebsiella oxytoca isolate Ko0426 harboring IncL/M plasmid and blaIMP-4-qacG2-aacA4-catB3 array by Etest method
Klebsiella oxytoca [26] = assay: Antibacterial activity against Klebsiella oxytoca isolate Ko1156 harboring IncL/M plasmid and blaIMP-4-qacG2-aacA4-catB3 array by Etest method
Citrobacter amalonaticus [27] = assay: Antibacterial activity against Citrobacter amalonaticus isolate Ca1614 harboring IncL/M plasmid and blaIMP-4-qacG2-aacA4-catB3 array by Etest method
Citrobacter freundii = assay: Antibacterial activity against Citrobacter freundii isolate Cf1614 harboring IncL/M plasmid and blaIMP-4-qacG2-aacA4-catB3 array by Etest method
Morganella morganii [28] = assay: Antibacterial activity against Morganella morganii isolate Mm1614 harboring IncL/M plasmid and blaIMP-4-qacG2-aacA4-catB3 array by Etest method
Klebsiella pneumoniae [29] = assay: Antibacterial activity against Klebsiella pneumoniae isolate Kp149 harboring IncA/C plasmid and blaIMP-4-qacG2-aacA4-catB3 array by Etest method
Serratia marcescens [30] = assay: Antibacterial activity against Serratia marcescens isolate Sm201 harboring IncA/C plasmid and blaIMP-4-qacG2-aacA4-catB3 array by Etest method
Klebsiella pneumoniae [31] = assay: Antibacterial activity against Klebsiella pneumoniae isolate Kp211 harboring IncA/C plasmid and blaIMP-4-qacG2-aacA4-catB3 array by Etest method
Escherichia coli [32] = assay: Antibacterial activity against Escherichia coli isolate Ec211 harboring IncA/C plasmid and blaIMP-4-qacG2-aacA4-catB3 array by Etest method
Klebsiella pneumoniae [33] = assay: Antibacterial activity against Klebsiella pneumoniae isolate Kp266 harboring IncA/C plasmid and blaIMP-4-qacG2-aacA4-catB3 array by Etest method
Serratia marcescens [34] = assay: Antibacterial activity against Serratia marcescens isolate Sm211 harboring IncA/C plasmid and blaIMP-4-qacG2-aacA4-catB3 array by Etest method
Enterobacter cloacae [35] = assay: Antibacterial activity against Enterobacter cloacae isolate El216 harboring IncA/C plasmid and blaIMP-4-qacG2-aacA4-catB3 array by Etest method
Escherichia coli [36] = assay: Antibacterial activity against Escherichia coli isolate Ec221 harboring IncA/C plasmid and blaIMP-4-qacG2-aacA4-catB3 array by Etest method
Klebsiella oxytoca [37] = assay: Antibacterial activity against Klebsiella oxytoca isolate Ko238 harboring IncA/C plasmid and blaIMP-4-qacG2-aacA4-catB3 array by Etest method
Klebsiella pneumoniae [38] = assay: Antibacterial activity against Klebsiella pneumoniae isolate Kp204 harboring IncA/C plasmid and blaIMP-4-qacG2-aacA4-catB3 array by Etest method
Serratia marcescens [39] = assay: Antibacterial activity against Serratia marcescens isolate Sm265 harboring IncA/C plasmid and blaIMP-4-qacG2-aacA4-catB3 array by Etest method

NC[C@H]1O[C@H](O[C@H]2[C@H](O)[C@@H](O[C@H]3O[C@H](CO)[C@@H](O)[C@H](N)[C@H]3O)[C@H](N)C[C@@H]2N)[C@H](N)C[C@@H]1O [TOBRAMYCIN]
MIC (Klebsiella pneumoniae [1]): 8 µg/mL (≈ 17.1 µM)
MIC (Klebsiella pneumoniae [2]): 8 µg/mL (≈ 17.1 µM)
MIC (Citrobacter amalonaticus [3]): 8 µg/mL (≈ 17.1 µM)
MIC (Enterobacter cloacae [4]): 8 µg/mL (≈ 17.1 µM)
MIC (Citrobacter amalonaticus [5]): 8 µg/mL (≈ 17.1 µM)
MIC (Klebsiella pneumoniae [6]): 8 µg/mL (≈ 17.1 µM)
MIC (Escherichia coli [7]): 8 µg/mL (≈ 17.1 µM)
MIC (Morganella morganii [8]): 8 µg/mL (≈ 17.1 µM)
MIC (Enterobacter cloacae [9]): 8 µg/mL (≈ 17.1 µM)
MIC (Klebsiella oxytoca [10]): 8 µg/mL (≈ 17.1 µM)
MIC (Klebsiella oxytoca [11]): 8 µg/mL (≈ 17.1 µM)
MIC (Escherichia coli [12]): 8 µg/mL (≈ 17.1 µM)
MIC (Citrobacter koseri): 8 µg/mL (≈ 17.1 µM)
MIC (Escherichia coli [13]): 8 µg/mL (≈ 17.1 µM)
MIC (Citrobacter youngae): 8 µg/mL (≈ 17.1 µM)
MIC (Klebsiella pneumoniae [14]): 8 µg/mL (≈ 17.1 µM)
MIC (Klebsiella pneumoniae [15]): > 8 µg/mL
MIC (Enterobacter cloacae [16]): > 8 µg/mL
MIC (Citrobacter amalonaticus [17]): > 8 µg/mL
MIC (Enterobacter cloacae [18]): > 8 µg/mL
MIC (Serratia marcescens [19]): > 8 µg/mL
MIC (Klebsiella pneumoniae [20]): 8 µg/mL (≈ 17.1 µM)
MIC (Citrobacter amalonaticus [21]): > 8 µg/mL
MIC (Klebsiella pneumoniae [22]): 8 µg/mL (≈ 17.1 µM)
MIC (Morganella morganii [23]): > 8 µg/mL
MIC (Enterobacter cloacae [24]): > 8 µg/mL
MIC (Klebsiella oxytoca [25]): > 8 µg/mL
MIC (Klebsiella oxytoca [26]): > 8 µg/mL
MIC (Citrobacter amalonaticus [27]): > 8 µg/mL
MIC (Citrobacter freundii): > 8 µg/mL
MIC (Morganella morganii [28]): > 8 µg/mL
MIC (Klebsiella pneumoniae [29]): > 8 µg/mL
MIC (Serratia marcescens [30]): > 8 µg/mL
MIC (Klebsiella pneumoniae [31]): 8 µg/mL (≈ 17.1 µM)
MIC (Escherichia coli [32]): > 8 µg/mL
MIC (Klebsiella pneumoniae [33]): > 8 µg/mL
MIC (Serratia marcescens [34]): > 8 µg/mL
MIC (Enterobacter cloacae [35]): > 8 µg/mL
MIC (Escherichia coli [36]): 8 µg/mL (≈ 17.1 µM)
MIC (Klebsiella oxytoca [37]): 8 µg/mL (≈ 17.1 µM)
MIC (Klebsiella pneumoniae [38]): 8 µg/mL (≈ 17.1 µM)
MIC (Serratia marcescens [39]): > 8 µg/mL
